Data set [1] has as its system PANC-1. Briefly: Cytotoxicity against human PANC-1 cells assessed as inhibition of cell growth incubated for 72 hrs by SRB assay. The settings on record: PANC-1, 72 h. The class given is functional, cell-based.
A short description of data set [2]: Cytotoxicity against human MRC5 cells assessed as inhibition of cell growth incubated for 72 hrs by SRB assay. The data set is classed as toxicity, cell-based.
Data set [3] addresses T1, Protein kinase C beta type (Homo sapiens, UniProt P05771). Briefly: Binding affinity to PKCbeta1 in human Gemcitabine-resistant PANC-1 cells at 10 uM incubated for 1 hrs by streptavidin-biotin pull down assay. The class given is cell-based.
Target sequence in this assay (P05771 2-671 limits assumed): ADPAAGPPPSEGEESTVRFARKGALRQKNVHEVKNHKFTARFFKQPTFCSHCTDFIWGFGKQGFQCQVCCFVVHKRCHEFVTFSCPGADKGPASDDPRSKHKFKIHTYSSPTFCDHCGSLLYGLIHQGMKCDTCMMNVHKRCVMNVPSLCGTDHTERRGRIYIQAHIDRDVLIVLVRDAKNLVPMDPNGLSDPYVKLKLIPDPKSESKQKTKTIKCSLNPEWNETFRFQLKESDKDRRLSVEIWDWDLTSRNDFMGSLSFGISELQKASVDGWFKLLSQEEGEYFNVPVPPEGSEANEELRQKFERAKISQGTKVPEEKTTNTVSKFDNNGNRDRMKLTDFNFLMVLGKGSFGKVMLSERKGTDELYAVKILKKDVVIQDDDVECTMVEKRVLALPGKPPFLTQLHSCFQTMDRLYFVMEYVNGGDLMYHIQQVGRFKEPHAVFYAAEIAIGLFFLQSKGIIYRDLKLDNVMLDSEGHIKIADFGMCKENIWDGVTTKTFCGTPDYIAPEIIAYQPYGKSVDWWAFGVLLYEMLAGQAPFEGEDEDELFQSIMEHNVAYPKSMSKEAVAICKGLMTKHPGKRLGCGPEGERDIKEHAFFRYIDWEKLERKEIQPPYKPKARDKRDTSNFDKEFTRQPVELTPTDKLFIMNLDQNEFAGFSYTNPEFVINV
Data set [4] in a line: Cytotoxicity against HPDE6c7 cells assessed as inhibition of cell growth incubated for 72 hrs by SRB assay. The class given is toxicity, cell-based. As to conditions: human. In general terms: In SRB staining, fixed cells bind dye roughly in proportion to their protein.
Data set [5] relates to Gemcitabine-resistant PANC-1. Briefly: Cytotoxicity against human Gemcitabine-resistant PANC-1 cells assessed as inhibition of cell growth incubated for 72 hrs by SRB assay. The class given is functional, cell-based. The settings on record: Gemcitabine-resistant PANC-1, 72 h.
Data set [6] deals with T1, Protein kinase C beta type. Put plainly: Inhibition of recombinant full length N-terminal GST-tagged human PKCbeta1 expressed in baculovirus infected Sf9 insect cells using ERMRPRKRQGSVRRRV as substrate incubated for 60 mins in presence of ATP by ADP-glo reagent based luminometric analysis. (ADP-Glo first removes unused ATP, then detects ADP through luciferase.)
Data set [7] can be described thus: Selectivity ratio of IC50 for cytotoxicity against human Gemcitabine-resistant PANC-1 cells assessed as inhibition of cell growth to IC50 for cytotoxicity against human PANC-1 cells assessed as inhibition of cell growth. The data set is classed as functional.
Data set [8] relates to PANC-1. Put plainly: Antiproliferative activity against human PANC-1 cells transfected with Myc-DDK tagged pCMV6-PKCbeta1 assessed as reduction in cell viability at 1.25 to 40 uM incubated for 72 hrs by MTT assay. The class given is functional, cell-based. As to conditions: dose 1.25-40 µM. Background: Tetrazolium dyes change colour on reduction, which living cells bring about.

Data set [9] has as its system PANC-1. Put plainly: Antiproliferative activity against human PANC-1 cells transfected with PKCbeta1 siRNA assessed as reduction in cell viability at 1.25 to 40 uM incubated for 72 hrs by MTT assay. The data set is classed as functional, cell-based. As to conditions: dose 1.25-40 µM.
Data set [10] deals with Gemcitabine-resistant PANC-1. Put plainly: Antitumor activity against human Gemcitabine-resistant PANC-1 cells xenografted in male BALB/c nude mouse assessed as reduction in tumor growth at 10 mg/kg, ip administered three times in a week for 20 days relative to control. The class given is functional. On the set-up: scale not given: the % may be the effect or the level left. As to conditions: time 20 day.

The subject of data set [11] is Gemcitabine-resistant PANC-1. Put plainly: Antitumor activity against human Gemcitabine-resistant PANC-1 cells xenografted in male BALB/c nude mouse assessed as reduction in tumor growth at 5 mg/kg, ip administered three times in a week for 20 days. The class given is functional, organism-based. As to conditions: time 20.0 day.

The source made the active and inactive calls. No cut-off for these calls is given here. Some results are limits rather than exact numbers.

In general, IC50 refers to the concentration at which inhibition is half-maximal.

For `CN1c2cc(Cl)ccc2C(=O)N2CCc3c([nH]c4ccccc34)[C@H]21`, the IC50 in the data set with PANC-1 [1] is greater than 50 µM. The IC50 at 72 h in data set [2] was greater than 50 µM.
With `COc1ccc2c(c1)C(=O)N1CCc3c([nH]c4ccccc34)[C@H]1N2C`, the IC50 in the data set with PANC-1 [1] stood at 1.05 µM. For the same molecule, the IC50 at 72 h in data set [2] came out at 3.33 µM.
The corresponding values for `CN1c2ccccc2C(=O)N2CCc3c([nH]c4ccc(F)cc34)[C@H]21` are 9.32 µM and 4.71 µM.
As for `CC(=O)Oc1ccc2c(c1)c1c(n2Cc2cn(CCNC(=O)CCCC[C@@H]3SC[C@@H]4NC(=O)N[C@@H]43)nn2)C2N(CC1)C(=O)c1ccccc1N2C` (some centres not stated), the result in data set [3] was Active.
With `CC(=O)Oc1ccc2[nH]c3c(c2c1)CCN1C(=O)c2cc(F)ccc2N(C)[C@H]31`, the IC50 with PANC-1 [1] was less than 0.4 µM. Besides, in [2], the IC50 at 72 h was less than 0.4 µM.
As for `Cc1ccc2c(c1)C(=O)N1CCc3c([nH]c4ccccc34)[C@H]1N2C`, the IC50 in the data set on PANC-1 [1] came to 2.02 µM. Moreover, in data set [2], the IC50 at 72 h stood at 7.36 µM.
The corresponding values for `CCCOc1ccc2[nH]c3c(c2c1)CCN1C(=O)c2ccccc2N(C)[C@H]31` are 19 µM and greater than 50 µM.
On to `CN1c2ccccc2C(=O)N2CCc3c([nH]c4ccc(O)cc34)[C@H]21`, for which the IC50 in the data set with PANC-1 [1] was no more than 0.05 µM; in data set [5], 0.25 µM. Besides, the IC50 at 72 h in data set [2] is greater than 50 µM; in [4], 0.17 µM. The inhibition entry in [6] was “inactive”.
Consider `Cc1cccc2c1N(C)[C@@H]1c3[nH]c4ccccc4c3CCN1C2=O`, for which, in the data set on PANC-1 [1], the IC50 was less than 0.4 µM. The IC50 at 72 h in [2] is less than 0.4 µM.
As for `Cc1ccc(CN2c3ccccc3C(=O)N3CCc4c([nH]c5ccccc45)[C@H]32)cc1`, in the data set on PANC-1 [1], the IC50 was 11.3 µM. In [2], the IC50 at 72 h was greater than 50 µM.
The corresponding values for `CCCCCCn1c2c(c3ccccc31)CCN1C(=O)c3ccccc3N(C)[C@H]21` are 13.7 µM and 37.6 µM.
The corresponding values for `CCCN1c2ccccc2C(=O)N2CCc3c([nH]c4ccccc34)[C@H]21` are less than 0.4 µM and less than 0.4 µM.
The like results for `CN1c2ccc(Cl)cc2C(=O)N2CCc3c([nH]c4ccccc34)[C@H]21` were, in that order, 1.32 µM and 1.03 µM.
Turning to `COc1cc([C@@H]2c3cc4c(cc3[C@@H](O[C@@H]3O[C@@H]5CO[C@@H](C)O[C@H]5[C@H](O)[C@H]3O)[C@H]3COC(=O)[C@H]23)OCO4)cc(OC)c1O` [ETOPOSIDE], the IC50 in the data set with PANC-1 [1] was determined as 18.3 µM. Further, the IC50 at 72 h in [2] was greater than 20 µM.
The corresponding values for `C=CCOc1ccc2[nH]c3c(c2c1)CCN1C(=O)c2ccccc2N(C)[C@H]31` are 6.7 µM and greater than 50 µM.
The like results for `COc1ccc2c(c1)N(C)[C@@H]1c3[nH]c4ccccc4c3CCN1C2=O` were, in that order, 31.6 µM and 3.6 µM.
The corresponding values for `COc1ccc(Cn2c3c(c4ccccc42)CCN2C(=O)c4ccccc4N(C)[C@H]32)cc1` are 47.2 µM and greater than 50 µM.
On to `Nc1ccn([C@@H]2O[C@H](CO)[C@@H](O)C2(F)F)c(=O)n1` [GEMCITABINE], for which the concentration for half-maximal inhibition (IC50) in the data set with PANC-1 [1] stood at 1.25 µM; in data set [5], 64.5 µM. In data set [4], the IC50 at 72 h stood at 0.04 µM. The “Ratio IC50” value in data set [7] is reported as 51.61. For the same molecule, the outcome (in the data set on PANC-1 [8]; in [11]) was inactive. Also, the result with PANC-1 [9] was Active. In addition, the Activity in [10] is 72.15%.
With `CN1c2ccccc2C(=O)N2CCc3c(n(C)c4ccccc34)[C@H]21`, the IC50 in the data set with PANC-1 [1] was greater than 50 µM. Also, in data set [2], the IC50 at 72 h is greater than 50 µM.
Consider `C#CCOc1ccc2[nH]c3c(c2c1)CCN1C(=O)c2ccccc2N(C)[C@H]31`, for which the IC50 with PANC-1 [1] worked out at 4 µM. Besides, the IC50 at 72 h in data set [2] was greater than 50 µM.
The like results for `CN1c2ccccc2C(=O)N2CCc3c([nH]c4ccc(OCc5ccccc5)cc34)[C@H]21` were, in that order, 10.7 µM and greater than 50 µM.
Regarding `COc1cccc2c1C(=O)N1CCc3c([nH]c4ccccc34)[C@H]1N2C`, the IC50 in the data set on PANC-1 [1] came out at 12.6 µM. Further, in [2], the IC50 at 72 h is 12.7 µM.
In the case of `O=C1c2ccccc2N(Cc2ccc(C(F)(F)F)cc2)[C@@H]2c3[nH]c4ccccc4c3CCN12`, in the data set with PANC-1 [1], the IC50 was determined as 31.5 µM. The IC50 at 72 h in data set [2] is 50 µM.
Regarding `CN1c2ccccc2C(=O)N2CCc3c(n(Cc4ccc(Cl)cc4)c4ccccc34)[C@H]21`, the IC50 with PANC-1 [1] was determined as 44 µM. Besides, the IC50 at 72 h in data set [2] was greater than 50 µM.
The like results for `CN1c2ccc(Br)cc2C(=O)N2CCc3c([nH]c4ccccc34)[C@H]21` were, in that order, 2.25 µM and 3.06 µM.
For `O=C1c2ccccc2N(Cc2ccccc2)[C@@H]2c3[nH]c4ccccc4c3CCN12`, the IC50 in the data set with PANC-1 [1] is greater than 50 µM. The 50% inhibitory concentration (IC50) at 72 h in data set [2] was greater than 50 µM.
Turning to `O=C1c2ccccc2N[C@@H]2c3[nH]c4ccccc4c3CCN12`, the IC50 in the data set with PANC-1 [1] is greater than 50 µM. In addition, the IC50 at 72 h in data set [2] was greater than 50 µM.
Turning to `Cn1cc(C2=C(c3cn(C4CCN(Cc5ccccn5)CC4)c4ccccc34)C(=O)NC2=O)c2ccccc21` [ENZASTAURIN], the IC50 with PANC-1 [1] was found to be 6.59 µM; in data set [5], 2.12 µM. The IC50 at 72 h in data set [4] worked out at 1.33 µM.
On to `CN1c2ccccc2C(=O)N2CCc3c([nH]c4c([N+](=O)[O-])cc([N+](=O)[O-])cc34)[C@H]21`, for which the IC50 was found to be 0.93 µM with PANC-1 [1] and 1.31 µM in [5]. Further, the values for the IC50 at 72 h in [2] and in data set [4] were greater than 50 µM and 0.08 µM, respectively. Also, the inhibition result in data set [6] is “inactive”.
The corresponding values for `CN1c2ccccc2C(=O)N2CCc3c([nH]c4ccc(OC(=O)c5ccccc5)cc34)[C@H]21` are 0.75 µM, 0.13 µM, greater than 50 µM, 0.14 µM and “inactive”.
With `CN1c2ccccc2C(=O)N2CCc3c([nH]c4ccc([N+](=O)[O-])cc34)[C@H]21`, in the data set with PANC-1 [1], the IC50 is 4.45 µM. The IC50 at 72 h in data set [2] was greater than 50 µM.
The corresponding values for `CCCn1c2c(c3ccccc31)CCN1C(=O)c3ccccc3N(C)[C@H]21` are 38.4 µM and greater than 50 µM.
The like results for `Cc1ccc(Cn2c3c(c4ccccc42)CCN2C(=O)c4ccccc4N(C)[C@H]32)cc1` were, in that order, greater than 50 µM and greater than 50 µM.
Turning to `COc1ccc2[nH]c3c(c2c1)CCN1C(=O)c2ccccc2N(C)[C@H]31`, the IC50 in the data set on PANC-1 [1] was 11.1 µM. Besides, the IC50 at 72 h in data set [2] was 10.8 µM.
The corresponding values for `O=C1c2ccccc2N(C(=O)C2CCCCC2)C2c3[nH]c4ccccc4c3CCN12` (single isomer, unassigned) are greater than 50 µM and greater than 50 µM.
The like results for `CN1c2ccc(F)cc2C(=O)N2CCc3c([nH]c4ccccc34)[C@H]21` were, in that order, less than 0.4 µM and less than 0.4 µM.
As to `CN1c2ccccc2C(=O)N2CCc3c([nH]c4ccc(Cl)cc34)[C@H]21`, the IC50 in the data set on PANC-1 [1] turned out to be 31.6 µM. For the same molecule, the IC50 at 72 h in [2] worked out at 9.42 µM.
The corresponding values for `Cc1ccc2[nH]c3c(c2c1)CCN1C(=O)c2ccccc2N(C)[C@H]31` are 29.2 µM and greater than 50 µM.
The like results for `CN1c2ccccc2C(=O)N2CCc3c(n(Cc4ccccc4)c4ccccc34)[C@H]21` were, in that order, 6.88 µM and 33.7 µM.
Take `CN1c2ccccc2C(=O)N2CCc3c([nH]c4ccccc34)[C@H]21`: the IC50 in the data set with PANC-1 [1] is 6.59 µM; in data set [6], 0.151 µM. For the same molecule, in data set [2], the IC50 at 72 h was greater than 50 µM.
As for `CC(=O)Oc1ccc2[nH]c3c(c2c1)CCN1C(=O)c2cccc(C)c2N(C)[C@H]31`, in the data set with PANC-1 [1], the IC50 is less than 0.4 µM. Further, the IC50 at 72 h in data set [2] was less than 0.4 µM.
In the case of `CN1c2cccc(Cl)c2C(=O)N2CCc3c([nH]c4ccccc34)[C@H]21`, the IC50 with PANC-1 [1] stood at 8.8 µM. Moreover, the IC50 at 72 h in data set [2] was less than 0.4 µM.
The like results for `CN1c2ccccc2C(=O)N2CCc3c(n(C(=O)c4ccccc4)c4ccccc34)[C@H]21` were, in that order, greater than 50 µM and greater than 50 µM.
